Key:
[1] = Toxicity Index (TI) computed from graded treatment-attributable adverse events (NCI CTC) of recipient subjects, per treatment cycle; type: in vivo, human; design: key to Toxicity Index TI9 Mean / Toxicity Index TI12 Mean / Toxicity Index TI13 Mean / Toxicity Index TI16 Mean / Toxicity Index TI17 Mean / Toxicity Index TI19 Mean / Toxicity Index TI1 Mean / Toxicity Index TI2 Mean / Toxicity Index TI4 Mean: weighted sum of ordered recoded CTC grades; ≥3 = DLT; conditions: mean over recipient subjects; for Toxicity Index TI1 Mean: cycle 1, score between 0 and 5; for Toxicity Index TI2 Mean: cycle 2; for Toxicity Index TI3 Mean: cycle 3; for Toxicity Index TI4 Mean: cycle 4; for Toxicity Index TI5 Mean: cycle 5; for Toxicity Index TI6 Mean: cycle 6; for Toxicity Index TI7 Mean: cycle 7; for Toxicity Index TI8 Mean: cycle 8; for Toxicity Index TI9 Mean: cycle 9; for Toxicity Index TI10 Mean: cycle 10; for Toxicity Index TI11 Mean: cycle 11; for Toxicity Index TI12 Mean: cycle 12; for Toxicity Index TI13 Mean: cycle 13; for Toxicity Index TI14 Mean: cycle 14; for Toxicity Index TI15 Mean: cycle 15; for Toxicity Index TI16 Mean: cycle 16; for Toxicity Index TI17 Mean: cycle 17; for Toxicity Index TI18 Mean: cycle 18; for Toxicity Index TI19 Mean: cycle 19; for Toxicity Index TI20 Mean: cycle 20; for Toxicity Index TI21 Mean: cycle 21
Excerpt: Recipient subject-specific characteristics, medical and treatment histories, doses of experimental agents, and graded toxicities were extracted from case report forms. Toxicity data were represented for each subject as a set of treatment-attributable adverse events, each graded (0, 1, 2, 3, or 4) according to NCI Common Toxicity Criteria (CTC). The term “toxicity profile” as used herein refers to the collection of graded toxicities observed for an individual recipient subject.
To include all trials in the same analysis, a common definition of dose limiting toxicity (DLT) was adopted. Specifically, DLT was defined as occurring whenever any one of the following was observed: grade 4 hematological toxicity (grade 4 neutropenia or thrombocytopenia of any duration); a grade 3 or 4 non-hematological toxicity (excluding nausea, vomiting, and alopecia); febrile neutropenia of any grade.
To identify risk factors and other pre-trial characteristics of interest, several ways of summarizing the toxicity profile of a given recipient subject into a single measure of overall severity were examined as described, for example in Rogatko et al., (2004) Clin. Cancer Res. 10:4645-4651, incorporated herein by reference in its entirety. A summary measure that takes into account all observed toxicity grades rather than just the most severe one was used. The summary measure, the Toxicity Index (TI), is computed according to the following algorithm: • (a) recode each hematologic toxicity as the maximum of 0 and the observed grade minus one (so that a grade 3 toxicity is dose limiting irrespective of whether or not it is hematologic). • (b) Let the toxicity grades in a subject's recoded toxicity profile be represented in descending order by the sequence X1≧X2≧ . . . ≧Xn • (c) Calculate the subject's TI score as the weighted sum of the ordered toxicity grades:
Any score greater than or equal to 3 corresponds to a DLT according to the definition given above, and the maximum toxicity grade is the integer part of the final score. […] All toxicity grades are taken into account, though lower grades will contribute less to the final score.
The score is a number between 0 and 5.
(§1) Thirty (30) recipient subjects already receiving treatment with paclitaxel were screened for the presence of SNPs in the CYP2C8 and TUBB loci. Clinical data from each of the recipient subjects was used to first calculate a Toxicity Index (TI) value for each individual according to the method presented in Example 1, above. The genotype for each recipient subject with regard to the SNPs of CYP2C8 and TUBB was determined using SNPWARE™ and single base extension according to the methods of Example 4, above.
(§2) A preliminary data analysis focused on the relationship between the Toxicity Index and the recipient subjects' demographic/genetic information. […] Univariate linear regression analysis was conducted first to find significant covariates in predicting the Toxicity Index in one of five cycles, then multivariable analysis was used to determine the best model in fitting the data. A mixed model for repeated measurement was implemented in modeling Toxicity Index in the first five cycles, and also in all cycles. Autoregressive covariance structure was used in the mixed model. SAS and Minitab were used in the analysis.

TUBB gene locus = assay: Regression of Toxicity Index on TUBB SNP genotype of recipient subjects; type: in vivo, human
Excerpt: The GENOMELAB SNPSTREAM™ (Beckman) was utilized to accommodate up to 92,000 genotypes per day. This automated, multiplexed system can process up to 48 SNPs in each well of an arrayed 384-well plate. The SNPSTREAM™ operates at a consistent cost per genotype or per sample, regardless of run throughput, allowing users to cost-effectively zero in on targets with low-throughput studies as well as conduct high-throughput analyses.
The SNPSTREAM™ Genotyping System features a protocol with three steps. The technology is based on single-based primer extension technology. The system's high sensitivity delivers results using as little as 2 ng of genomic DNA. SNPWARE™ reagent kits were used. The kits included ready-to-use reagents, all performed in the original PCR plate according to the manufacturer's instructions, and incorporated herein by reference in its entirety.
Multiplexed reactions were spatially resolved on a SNPWARE™ Tag Array plate. Each of the 384 wells in a plate contained 16 or 52 unique oligonucleotides of a known sequence, or tag. Each tag on the plate was complementary to one of the tags of the 12 or 48 extension primers, plus four controls to ensure accuracy. After transfer to the Tag Array plate, each SNP was hybridized to its complementary tag. SNPs were then identified by their position in the well.
The process involved a multiplex PCR followed by an annealing reaction of the oligonucleotide to the specific PCR product. Next the oligonucleotide was extended by a single base which was fluorescently labeled with a terminating NTP and finally detected by two-colored fluorescence specific for the allele.
For each SNP, the -PCRU and -PCRL primers were first used to amplify a relevant DNA fragment surrounding the target SNP site. The components per reaction were: H2O, 3.0 μl; 10× PCR Buffer II, 0.5 μl; MgCl2 (25 mM), 1.0 μl; dNTPs (2.5 mM each), 0.18 μl; PCR Primer Pool (2.5 μM each), 0.1 μl; AMPLITAQ GOLD™ (5 U/μl), 0.125 μl for a total volume of 5.0 μl per reaction.
Primer -SNPU or SNPL was then used for single-base extension reaction. The thermocycler program was as follows: Step 1: 96° C. for 3 min; Step 2: 94° C. for 20 sec; Step 3: 40° C. for 11 sec; and Step 5: return to step 2 59 times, and finally to hold at 4° C.
as §1
For the CYP2C8 locus, two genotypes for the rsl 058932 SNP (as shown in FIG. 1) were considered: heterozygous TC and homozygous CC. For the TUBB locus (SNP rs3132584), the heterozygous SNP CA, and the combined homozygous AA and CC variants, were considered.
as §2
Covariates in the analysis included recoded binary demographic variables (sex, race, site, grade, stage) and recoded binary genetic variables.
Multivariable regression analysis was used to find the best model in predicting the Toxicity Index in each of the first five cycles.

CC(=O)O[C@H]1C(=O)[C@@]2(C)[C@H]([C@H](OC(=O)c3ccccc3)[C@]3(O)C[C@H](OC(=O)[C@H](O)[C@@H](NC(=O)c4ccccc4)c4ccccc4)C(C)=C1C3(C)C)[C@]1(OC(C)=O)CO[C@@H]1C[C@@H]2O [Paclitaxel, (2aR,4S,4aS,6R,9S,11S,12S,12aR,12bS)-1,2a,3,4,4a,6,9,10,11,12,12a,12b-Dodecahydro-4,6,9,11,12,12b-hexahydroxy-4a,8,13,13-tetramethyl-7,11-methano-5H-cyclodeca(3,4)benz(1,2-b)oxet-5-one 6,12b-diacetate, 12-benzoate, 9-ester with (2R,3S)-N-benzoyl-3-phenylisoserine]
Toxicity Index TI1 Mean [1]: 2.175
Toxicity Index TI2 Mean [1]: 2.399
Toxicity Index TI3 Mean [1]: 2.491
Toxicity Index TI4 Mean [1]: 2.787
Toxicity Index TI5 Mean [1]: 2.696
Toxicity Index TI6 Mean [1]: 2.580
Toxicity Index TI7 Mean [1]: 2.529
Toxicity Index TI8 Mean [1]: 2.206
Toxicity Index TI9 Mean [1]: 2.292
Toxicity Index TI10 Mean [1]: 1.875
Toxicity Index TI11 Mean [1]: 2.583
Toxicity Index TI12 Mean [1]: 1.750
Toxicity Index TI13 Mean [1]: 1.875
Toxicity Index TI14 Mean [1]: 1.875
Toxicity Index TI15 Mean [1]: 1.875
Toxicity Index TI16 Mean [1]: 2.583
Toxicity Index TI17 Mean [1]: 2.583
Toxicity Index TI18 Mean [1]: 2.583
Toxicity Index TI19 Mean [1]: 2.583
Toxicity Index TI20 Mean [1]: 2.944
Toxicity Index TI21 Mean [1]: 3.469
Coef, regression TI1 versus CYP2C8_2_31, TUBB2: predictor TUBB2 (TUBB gene locus; 30 recipient subjects, rs3132584, heterozygous CA vs combined AA and CC, P 0.039): −0.9135
Para. Est., TI2 vs TUBB4 (multivariable) (TUBB gene locus; multivariable analysis best model, cycle 2, rs1061397, CC = 1, TC/TT = 0, P-value 0.037): −1.185
Para. Est., TI1 vs TUBB2 (multivariable) (TUBB gene locus; multivariable regression with CYP2C8_2_31, cycle 1, rs3132584, CA = 1, CC/AA = 0, P-value 0.039): 0.914
Para. Est., TI1 vs TUBB1 (TUBB gene locus; univariate linear regression, cycle 1, rs8233, AG = 1, AA/GG = 0, P-value 0.042): 0.975
Para. Est., TI1 vs TUBB2 (TUBB gene locus; univariate linear regression, cycle 1, rs3132584, CA = 1, CC/AA = 0, P-value 0.042): 0.975
Para. Est., TI2 vs TUBB3 (TUBB gene locus; univariate linear regression, cycle 2, rs25527, CC = 1, TC/TT = 0, P-value 0.047): −1.062
Para. Est., TI2 vs TUBB4 (TUBB gene locus; univariate linear regression, cycle 2, rs1061397, CC = 1, TC/TT = 0, P-value 0.037): −1.185

CC(=O)O[C@@]12CO[C@@H]1C[C@H](O)[C@@]1(C)C(=O)[C@H](O)C3=C(C)[C@@H](OC(=O)[C@H](O)[C@@H](NC(=O)OC(C)(C)C)c4ccccc4)C[C@@](O)([C@@H](OC(=O)c4ccccc4)[C@H]21)C3(C)C (relative stereo) [Docetaxel, Benzenepropanoic acid, β-(((1,1-dimethylethoxy)carbonyl)amino)-α-hydroxy-, 12b-(acetyloxy)-12-(benzoyloxy)-2a,3,4,4a,5,6,9,10,11,12,12a,12b-dodecahydro-4,6,11-trihydroxy-4a,8,13,13-tetramethyl-5-oxo-7,11-methano-1H-cyclodeca(3,4)benz(1,2-b)oxet-9-yl ester trihydrate, (2aR-(2aα,4β,4aβ,6β,9(αR*,βS),11α,12α,12aα,12bα))-]
Toxicity Index TI1 Mean [1]: 2.727
Toxicity Index TI2 Mean [1]: 2.840
Toxicity Index TI3 Mean [1]: 2.737
Toxicity Index TI4 Mean [1]: 3.058
Toxicity Index TI5 Mean [1]: 2.669
Toxicity Index TI6 Mean [1]: 2.875
Toxicity Index TI7 Mean [1]: 2.646
Toxicity Index TI8 Mean [1]: 2.804
Toxicity Index TI9 Mean [1]: 2.438
Toxicity Index TI10 Mean [1]: 2.623
Toxicity Index TI11 Mean [1]: 2.297
Toxicity Index TI12 Mean [1]: 2.090
Toxicity Index TI13 Mean [1]: 2.404
Toxicity Index TI14 Mean [1]: 2.171
Toxicity Index TI15 Mean [1]: 2.083
Toxicity Index TI16 Mean [1]: 1.875
Toxicity Index TI17 Mean [1]: 1.875
Toxicity Index TI18 Mean [1]: 1.875
Toxicity Index TI19 Mean [1]: 2.625
Toxicity Index TI20 Mean [1]: 1.875
Toxicity Index TI21 Mean [1]: 1.875

Reference: patent US20090186361A1, “METHODS OF PREDICTING THE PHARMACEUTICAL TOXICITY OF TAXANES” (priority 2008, published 2009)
